Experimental data from ChEMBL document CHEMBL1149595, “Novel isomarabarican triterpenes, exhibiting selective anti-proliferative activity against vascular endothelial cells, from marine sponge Rhabdastrella globostellata” (Bioorg Med Chem, 2007).
Calls of active or inactive are those of the source. The calls are words filed in the database; no cut-off is given here.

Legend:
[1] = system: K562; assay: Growth inhibition of K562 cells after 72 hrs; format: functional, cell-based; conditions: Homo sapiens, K562, 72 h
[2] = system: HUVEC; assay: Growth inhibition of HUVEC cells after 72 hrs; format: functional, cell-based; conditions: Homo sapiens
[3] = system: K562; assay: Selectivity index, ratio of IC50 for K562 cells to IC50 for HUVEC cells; format: functional, Homo sapiens
[4] = Growth inhibition of KB3-1 cells after 72 hrs; format: functional, cell-based; conditions: Homo sapiens, KB 3-1, 72 h
[5] = Growth inhibition of Neuro2A cells after 72 hrs; format: functional, cell-based; conditions: N2a
[6] = system: HUVEC; assay: Selectivity index, ratio of IC50 for KB3-1 cells to IC50 for HUVEC cells; format: functional, Homo sapiens
[7] = system: HUVEC; assay: Selectivity index, ratio of IC50 for Neuro2A cells to IC50 for HUVEC cells; format: functional, Homo sapiens
[8] = system: HUVEC; assay: Induction of apoptosis assessed as activation of caspase 3 in HUVEC cells at 10 uM after 60 hrs; format: functional, Homo sapiens
[9] = system: HUVEC; assay: Induction of apoptosis assessed as activation of caspase 3 in HUVEC cells at 1 uM after 60 hrs; format: functional, Homo sapiens
[10] = system: HUVEC; assay: Induction of apoptosis assessed as activation of caspase 7 in HUVEC cells at 1 uM after 60 hrs; format: functional, Homo sapiens
[11] = molecular target: Mitogen-activated protein kinase 3 (Homo sapiens) (UniProt P27361); assay: Inhibition of VEGF-induced ERK1 phosphorylation in HUVEC cells after 6 hrs by immunoblotting; format: cell-based
[12] = system: HUVEC; assay: Inhibition of VEGF-induced cell migration in HUVEC at 0.3 uM after 12 hrs; format: functional, cell-based; conditions: Homo sapiens
[13] = system: HUVEC; assay: Inhibition of VEGF-induced cell migration in HUVEC at 1.0 uM after 12 hrs; format: functional, cell-based; conditions: Homo sapiens
[14] = system: HUVEC; assay: Induction of apoptosis assessed as activation of caspase 7 in HUVEC cells at 10 uM after 60 hrs; format: functional, Homo sapiens
[15] = system: HUVEC; assay: Induction of apoptosis assessed as activation of caspase 7 in HUVEC cells at 1 uM after 48 hrs; format: functional, Homo sapiens
[16] = system: HUVEC; assay: Induction of apoptosis assessed as activation of caspase 7 in HUVEC cells at 10 uM after 48 hrs; format: functional, Homo sapiens
[17] = Growth inhibition of HUVEC at 1 uM; format: cell-based; conditions: human, HUVEC cells
[18] = molecular target: Mitogen-activated protein kinase 1 (Homo sapiens) (UniProt P28482); assay: Inhibition of VEGF-induced ERK2 phosphorylation in HUVEC cells after 6 hrs by immunoblotting; format: cell-based
[19] = Growth inhibition of HUVEC at 10 uM; format: cell-based; conditions: human, HUVEC cells
[20] = system: KB 3-1; assay: Induction of apoptosis assessed as activation of caspase 7 in KB3-1 cells at 10 uM; format: functional, cell-based; conditions: Homo sapiens
[21] = system: HUVEC; assay: Induction of apoptosis assessed as activation of caspase 3 in HUVEC cells at 10 uM after 48 hrs; format: functional, Homo sapiens
[22] = system: KB 3-1; assay: Induction of apoptosis assessed as activation of caspase 3 in KB3-1 cells at 10 uM; format: functional, cell-based; conditions: Homo sapiens
[23] = system: HUVEC; assay: Induction of apoptosis assessed as activation of caspase 3 in HUVEC cells at 1 uM after 48 hrs; format: functional, Homo sapiens

Sequence of Mitogen-activated protein kinase 1 (Homo sapiens) (P28482 whole entry): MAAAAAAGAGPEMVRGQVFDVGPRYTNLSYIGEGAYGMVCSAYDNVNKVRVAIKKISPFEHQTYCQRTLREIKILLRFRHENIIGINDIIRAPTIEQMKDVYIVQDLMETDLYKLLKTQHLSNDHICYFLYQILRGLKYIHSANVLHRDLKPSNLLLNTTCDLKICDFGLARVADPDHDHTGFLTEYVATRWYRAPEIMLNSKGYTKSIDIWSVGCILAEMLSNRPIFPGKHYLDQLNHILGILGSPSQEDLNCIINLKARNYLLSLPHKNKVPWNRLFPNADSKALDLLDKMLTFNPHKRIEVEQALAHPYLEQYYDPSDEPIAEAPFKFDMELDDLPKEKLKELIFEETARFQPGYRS
Sequence of Mitogen-activated protein kinase 3 (Homo sapiens) (P27361 whole entry): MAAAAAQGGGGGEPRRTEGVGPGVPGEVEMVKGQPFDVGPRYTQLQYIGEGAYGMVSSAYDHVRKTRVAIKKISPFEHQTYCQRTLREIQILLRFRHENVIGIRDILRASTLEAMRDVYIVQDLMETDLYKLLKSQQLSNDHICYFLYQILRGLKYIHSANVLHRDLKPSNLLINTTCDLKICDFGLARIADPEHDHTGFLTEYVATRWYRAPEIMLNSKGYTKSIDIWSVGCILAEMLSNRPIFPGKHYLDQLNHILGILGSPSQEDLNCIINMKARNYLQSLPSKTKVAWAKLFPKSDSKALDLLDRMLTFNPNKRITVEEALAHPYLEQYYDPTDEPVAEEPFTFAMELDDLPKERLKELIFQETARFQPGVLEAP

SMILES	IC50 [1]	IC50 [2]	Ratio IC50 [3]	IC50 [4]	IC50 [5]	Ratio IC50 [6]	Ratio IC50 [7]	also measured
CC(=O)O[C@@H]1CC[C@@]2(C)[C@@H](CC[C@]3(C)/C(=C(C)/C=C/C=O)C(=O)C[C@@H]23)[C@@]1(C)C(=O)O [ACETYLJASPIFERAL E]	32 µM	2.2 µM	15	28 µM	34 µM	13	14	–
COC(=O)[C@]1(C)[C@@H]2CC[C@]3(C)\C(=C(C)/C=C/C=C(C)/C=C/C=C(C)C)C(=O)C[C@H]3[C@@]2(C)CC[C@H]1OC(C)=O	23 µM	–	256	14 µM	7.5 µM	–	83	Fold change [8]: 13; Fold change [9]: 13; Fold change [10]: 45; Activity [11]: inactive; Activity [12]: Active; Activity [13]: Active; Fold change [14]: 45; Fold change [15]: 17; Fold change [16]: 17; inhibition at 1 µM [17]: > 90%; Activity [18]: inactive; inhibition at 10 µM [19]: > 90%; Activity [20]: inactive; Fold change [21]: 5; Activity [22]: inactive; Fold change [23]: 5
COC(=O)[C@]1(C)[C@@H]2CC[C@]3(C)C(C(C)CCCC(C)CCCC(C)C)C(=O)C[C@H]3[C@@]2(C)CC[C@H]1OC(C)=O (stereo partly specified)	53 µM	> 100 µM	–	> 100 µM	80 µM	–	–	–
COC(=O)[C@]1(C)[C@@H]2CC[C@]3(C)/C(=C(C)/C=C/C=C(C)\C=C\C=C(C)C)C(=O)C[C@H]3[C@@]2(C)CC[C@H]1OC(C)=O	22 µM	0.4 µM	55	9.8 µM	7.9 µM	25	19	–
COC(=O)[C@]1(C)[C@@H]2CC[C@]3(C)\C(=C(C)/C=C/C=C(C)\C=C\C=C(C)C)C(=O)C[C@H]3[C@@]2(C)CC[C@H]1OC(C)=O	22 µM	0.06 µM	360	18 µM	4.7 µM	200	75	–

The next compounds have a lower IC50 [1] than those just listed; values first:

IC50 [1]	SMILES	IC50 [2]	Ratio IC50 [3]	IC50 [4]	IC50 [5]	Ratio IC50 [6]	Ratio IC50 [7]	also measured
7.8 µM	COC(=O)[C@]1(C)[C@@H]2CC[C@]3(C)\C(=C(C)/C=C/C=C(C)/C=C/C=O)C(=O)C[C@H]3[C@@]2(C)CC[C@H]1OC(C)=O [ACETYLJASPIFERAL B METHYL ESTER]	0.78 µM	10	16 µM	22 µM	20	28	–
5.2 µM	COC(=O)[C@@]1(C)[C@H](O)CC[C@@]2(C)[C@H]1CC[C@]1(C)\C(=C(C)/C=C/C=C(C)/C=C/C=C(C)C)C(=O)C[C@@H]21	0.19 µM	27	4.9 µM	5.9 µM	25	31	–
12 µM	COC(=O)[C@]1(C)[C@@H]2CC[C@]3(C)\C(=C(C)/C=C/C=C(C)/C=C/C(O)C(C)(C)O)C(=O)C[C@H]3[C@@]2(C)CC[C@H]1OC(C)=O (stereo partly specified) [GLOBOSTELLATIC ACID F METHYL ESTER]	0.98 µM	12	8.6 µM	5 µM	9	5	–
9 µM	COC(=O)[C@]1(C)[C@@H]2CC[C@]3(C)/C(=C(C)/C=C/C=C(C)/C=C/C=C(C)C)C(=O)C[C@H]3[C@@]2(C)CC[C@H]1OC(C)=O	0.064 µM	141	3.1 µM	3.2 µM	48	50	–
9.3 µM	COC(=O)[C@]1(C)[C@@H]2CC[C@]3(C)\C(=C(C)/C=C/C=C(\C)C(/C=C/C(C)(C)O)OC)C(=O)C[C@H]3[C@@]2(C)CC[C@H]1OC(C)=O (stereo partly specified)	1.1 µM	9	6.5 µM	6 µM	6	6	–
